Reference: publication PMC8269116 (Journal of psychopharmacology (Oxford, England), 2019)

biological target: T1, DAT (Homo sapiens, UniProt Q01959); test: [3H]dopamine uptake inhibition in HEK 293 cells overexpressing human DAT; format: cell-based; conditions: anomalous increase at some concentrations, non-sigmoidal curves
T1 sequence (Q01959 whole entry): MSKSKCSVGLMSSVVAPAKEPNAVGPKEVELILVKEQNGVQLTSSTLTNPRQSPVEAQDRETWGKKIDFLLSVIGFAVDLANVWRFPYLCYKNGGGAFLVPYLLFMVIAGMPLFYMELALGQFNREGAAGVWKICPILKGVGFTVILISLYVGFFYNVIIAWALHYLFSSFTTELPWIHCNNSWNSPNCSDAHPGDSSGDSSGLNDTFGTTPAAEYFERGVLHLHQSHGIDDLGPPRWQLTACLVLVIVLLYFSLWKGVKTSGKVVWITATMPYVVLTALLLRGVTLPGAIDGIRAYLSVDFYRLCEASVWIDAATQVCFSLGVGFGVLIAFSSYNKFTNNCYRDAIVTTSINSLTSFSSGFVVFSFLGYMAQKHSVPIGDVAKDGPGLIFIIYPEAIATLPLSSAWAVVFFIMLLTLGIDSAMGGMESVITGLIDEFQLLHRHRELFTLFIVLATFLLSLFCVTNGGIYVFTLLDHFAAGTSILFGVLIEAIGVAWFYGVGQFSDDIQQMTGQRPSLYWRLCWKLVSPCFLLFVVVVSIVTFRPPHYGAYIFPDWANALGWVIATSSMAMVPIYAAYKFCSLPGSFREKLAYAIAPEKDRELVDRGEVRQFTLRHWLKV

Row | Compound | increase of dopamine uptake
1 | CNC(C)C(=O)c1ccc(O)c(O)c1 (stereo not shown) [HHMC, 3,4-Dihydroxymethcathinone] | more than 200%
2 | CNC(C)Cc1ccc(O)c(O)c1 (stereo not shown) [HHMA, 3,4-dihydroxymethamphetamine] | more than 200%

biological target: human 5-HT transporter (SERT) (Homo sapiens, UniProt P31645); test: [3H]5-HT uptake inhibition in HEK 293 cells overexpressing human SERT; format: cell-based; conditions: read-out: SERT IC50; 5-HT uptake inhibition; mean and 95% confidence interval
Sequence (P31645 whole entry): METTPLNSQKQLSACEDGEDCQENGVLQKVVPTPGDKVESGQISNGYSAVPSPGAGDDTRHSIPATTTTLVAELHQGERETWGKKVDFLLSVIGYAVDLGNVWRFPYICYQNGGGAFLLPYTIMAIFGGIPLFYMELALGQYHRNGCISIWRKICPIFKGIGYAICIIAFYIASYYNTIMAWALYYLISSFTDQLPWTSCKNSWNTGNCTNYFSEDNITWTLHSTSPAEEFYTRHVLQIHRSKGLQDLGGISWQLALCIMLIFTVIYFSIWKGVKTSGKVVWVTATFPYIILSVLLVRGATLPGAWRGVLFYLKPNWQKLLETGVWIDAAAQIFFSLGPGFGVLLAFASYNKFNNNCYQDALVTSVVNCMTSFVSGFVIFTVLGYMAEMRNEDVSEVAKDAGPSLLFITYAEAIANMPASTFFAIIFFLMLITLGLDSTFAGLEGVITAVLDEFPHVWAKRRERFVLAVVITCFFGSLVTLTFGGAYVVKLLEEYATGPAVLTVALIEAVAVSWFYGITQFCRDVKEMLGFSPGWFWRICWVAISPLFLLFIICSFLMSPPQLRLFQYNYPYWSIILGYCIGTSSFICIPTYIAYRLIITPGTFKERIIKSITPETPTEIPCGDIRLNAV

Row | Compound | IC50 [µM]
3 | CNC(C)C(=O)c1ccc(O)c(O)c1 (stereo not shown) [HHMC, 3,4-Dihydroxymethcathinone] | > 100
4 | CNC(C)Cc1ccc(O)c(O)c1 (stereo not shown) [HHMA, 3,4-dihydroxymethamphetamine] | 65

biological target: NET (Homo sapiens, UniProt P23975); test: Radioligand binding, N-methyl-[3H]nisoxetine displacement; conditions: read-out: NET Ki; mean±SD, n=3
Sequence (P23975 whole entry): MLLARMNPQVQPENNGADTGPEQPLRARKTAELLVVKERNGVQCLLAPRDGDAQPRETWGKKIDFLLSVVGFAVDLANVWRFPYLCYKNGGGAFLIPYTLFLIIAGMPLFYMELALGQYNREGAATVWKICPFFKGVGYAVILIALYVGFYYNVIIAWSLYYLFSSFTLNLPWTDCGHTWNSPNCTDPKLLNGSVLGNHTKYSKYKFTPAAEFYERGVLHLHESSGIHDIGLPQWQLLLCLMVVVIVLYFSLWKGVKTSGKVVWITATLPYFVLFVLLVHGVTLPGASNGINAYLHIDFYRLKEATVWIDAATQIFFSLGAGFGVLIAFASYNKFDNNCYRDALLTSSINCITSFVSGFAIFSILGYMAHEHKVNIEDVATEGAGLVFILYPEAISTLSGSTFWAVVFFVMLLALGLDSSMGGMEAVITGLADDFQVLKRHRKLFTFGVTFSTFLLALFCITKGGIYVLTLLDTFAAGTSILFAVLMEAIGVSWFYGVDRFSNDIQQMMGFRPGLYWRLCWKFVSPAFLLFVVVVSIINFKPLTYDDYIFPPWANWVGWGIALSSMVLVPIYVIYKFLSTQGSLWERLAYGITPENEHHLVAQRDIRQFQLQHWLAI

Row | Compound | Ki [µM]
5 | CNC(C)C(=O)c1ccc(O)c(O)c1 (stereo not shown) [HHMC, 3,4-Dihydroxymethcathinone] | 4 ± 1
6 | CNC(C)Cc1ccc(O)c(O)c1 (stereo not shown) [HHMA, 3,4-dihydroxymethamphetamine] | 0.94 ± 0.14

biological target: T1, DAT; test: Radioligand binding, [3H]WIN35,428 displacement; conditions: read-out: DAT Ki; mean±SD, n=3

Row | Compound | Ki [µM]
7 | CNC(C)C(=O)c1ccc(O)c(O)c1 (stereo not shown) [HHMC, 3,4-Dihydroxymethcathinone] | 7.1 ± 0.3
8 | CNC(C)Cc1ccc(O)c(O)c1 (stereo not shown) [HHMA, 3,4-dihydroxymethamphetamine] | 1.9

biological target: SERT (Homo sapiens, UniProt P31645); test: Radioligand binding, [3H]citalopram displacement; conditions: read-out: SERT Ki; mean±SD, n=3
Sequence (P31645 whole entry): as the sequence (P31645 whole entry) above

Row | Compound | Ki [µM]
9 | CNC(C)C(=O)c1ccc(O)c(O)c1 (stereo not shown) [HHMC, 3,4-Dihydroxymethcathinone] | > 7.4
10 | CNC(C)Cc1ccc(O)c(O)c1 (stereo not shown) [HHMA, 3,4-dihydroxymethamphetamine] | > 7.4

biological target: dopamine D2 receptors (Homo sapiens, UniProt P14416); test: Radioligand binding, [3H]spiperone displacement; conditions: read-out: D2 Ki; mean±SD, n=3
Sequence (P14416 whole entry): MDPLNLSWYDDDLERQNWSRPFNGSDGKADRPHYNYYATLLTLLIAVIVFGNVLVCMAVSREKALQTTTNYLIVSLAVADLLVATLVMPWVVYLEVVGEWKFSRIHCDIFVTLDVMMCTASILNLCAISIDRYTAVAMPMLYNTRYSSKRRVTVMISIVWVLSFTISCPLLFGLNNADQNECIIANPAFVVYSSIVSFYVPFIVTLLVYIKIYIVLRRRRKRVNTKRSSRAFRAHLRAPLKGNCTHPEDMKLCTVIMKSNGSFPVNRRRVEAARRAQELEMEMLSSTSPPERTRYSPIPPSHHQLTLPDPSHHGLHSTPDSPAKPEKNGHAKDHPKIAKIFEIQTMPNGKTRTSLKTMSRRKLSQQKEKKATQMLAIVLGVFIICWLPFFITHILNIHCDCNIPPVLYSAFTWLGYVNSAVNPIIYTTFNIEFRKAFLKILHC

Row | Compound | Ki [µM]
11 | CNC(C)C(=O)c1ccc(O)c(O)c1 (stereo not shown) [HHMC, 3,4-Dihydroxymethcathinone] | > 13
12 | CNC(C)Cc1ccc(O)c(O)c1 (stereo not shown) [HHMA, 3,4-dihydroxymethamphetamine] | > 13

biological target: T2, α1 adrenergic receptor (α1A) (Homo sapiens, UniProt P35348); test: Radioligand binding, [3H]prazosin displacement; conditions: read-out: α1A Ki; mean±SD, n=3
T2 sequence (P35348 1-466): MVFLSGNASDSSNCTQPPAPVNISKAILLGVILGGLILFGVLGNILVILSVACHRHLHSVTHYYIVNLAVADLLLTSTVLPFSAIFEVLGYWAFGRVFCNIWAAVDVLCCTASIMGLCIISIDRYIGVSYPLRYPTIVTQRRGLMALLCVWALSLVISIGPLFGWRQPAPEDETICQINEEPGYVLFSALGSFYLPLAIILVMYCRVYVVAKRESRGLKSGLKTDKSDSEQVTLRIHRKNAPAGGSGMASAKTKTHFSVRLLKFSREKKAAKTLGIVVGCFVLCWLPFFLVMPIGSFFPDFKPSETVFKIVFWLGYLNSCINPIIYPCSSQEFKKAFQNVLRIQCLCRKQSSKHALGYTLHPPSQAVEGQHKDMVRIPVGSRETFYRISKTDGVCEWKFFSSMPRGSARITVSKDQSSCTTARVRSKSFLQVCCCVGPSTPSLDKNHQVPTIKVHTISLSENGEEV

Row | Compound | Ki [µM]
13 | CNC(C)C(=O)c1ccc(O)c(O)c1 (stereo not shown) [HHMC, 3,4-Dihydroxymethcathinone] | > 9.5
14 | CNC(C)Cc1ccc(O)c(O)c1 (stereo not shown) [HHMA, 3,4-dihydroxymethamphetamine] | > 9.5

biological target: T3, α2 adrenergic receptor (α2A) (Homo sapiens, UniProt P08913); test: Radioligand binding, [3H]rauwolscine displacement; conditions: read-out: α2A Ki; mean±SD, n=3
T3 sequence (P08913 1-465): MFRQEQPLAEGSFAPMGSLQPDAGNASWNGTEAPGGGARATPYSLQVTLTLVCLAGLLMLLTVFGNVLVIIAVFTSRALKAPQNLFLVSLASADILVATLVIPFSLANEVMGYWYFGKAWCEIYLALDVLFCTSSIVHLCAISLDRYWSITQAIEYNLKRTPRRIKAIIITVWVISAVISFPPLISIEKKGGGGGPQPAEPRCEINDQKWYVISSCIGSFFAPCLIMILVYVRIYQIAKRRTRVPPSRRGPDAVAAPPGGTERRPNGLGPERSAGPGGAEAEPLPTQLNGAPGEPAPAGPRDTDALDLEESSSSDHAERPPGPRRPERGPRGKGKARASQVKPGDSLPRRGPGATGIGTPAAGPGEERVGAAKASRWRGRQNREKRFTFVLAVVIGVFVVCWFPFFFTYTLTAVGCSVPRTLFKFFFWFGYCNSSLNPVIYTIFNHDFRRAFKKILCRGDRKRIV

Row | Compound | Ki [µM]
15 | CNC(C)C(=O)c1ccc(O)c(O)c1 (stereo not shown) [HHMC, 3,4-Dihydroxymethcathinone] | > 4.7
16 | CNC(C)Cc1ccc(O)c(O)c1 (stereo not shown) [HHMA, 3,4-dihydroxymethamphetamine] | 1.3 ± 0.1

biological target: T4, 5-HT1A receptor (Homo sapiens, UniProt P08908); test: Radioligand binding, [3H]8-hydroxy-2-; conditions: read-out: 5-HT1A Ki; mean±SD, n=3
T4 sequence (P08908 1-422): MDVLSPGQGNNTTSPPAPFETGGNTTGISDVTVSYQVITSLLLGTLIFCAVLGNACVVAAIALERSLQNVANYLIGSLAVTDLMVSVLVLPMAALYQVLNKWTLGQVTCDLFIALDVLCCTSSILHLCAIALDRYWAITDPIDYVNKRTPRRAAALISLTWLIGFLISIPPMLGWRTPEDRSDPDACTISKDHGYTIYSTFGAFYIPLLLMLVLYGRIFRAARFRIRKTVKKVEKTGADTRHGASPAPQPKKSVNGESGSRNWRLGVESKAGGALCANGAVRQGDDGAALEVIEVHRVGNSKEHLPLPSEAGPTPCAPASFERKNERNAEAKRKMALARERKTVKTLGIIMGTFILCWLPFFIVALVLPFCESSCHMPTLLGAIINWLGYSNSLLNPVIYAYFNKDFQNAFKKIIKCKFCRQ

Row | Compound | Ki [µM]
17 | CNC(C)C(=O)c1ccc(O)c(O)c1 (stereo not shown) [HHMC, 3,4-Dihydroxymethcathinone] | > 18
18 | CNC(C)Cc1ccc(O)c(O)c1 (stereo not shown) [HHMA, 3,4-dihydroxymethamphetamine] | > 18

biological target: 5-HT2A receptor (Homo sapiens, UniProt P28223); test: Radioligand binding, [3H]ketanserin displacement; conditions: read-out: 5-HT2A Ki; mean±SD, n=3
Sequence (P28223 whole entry): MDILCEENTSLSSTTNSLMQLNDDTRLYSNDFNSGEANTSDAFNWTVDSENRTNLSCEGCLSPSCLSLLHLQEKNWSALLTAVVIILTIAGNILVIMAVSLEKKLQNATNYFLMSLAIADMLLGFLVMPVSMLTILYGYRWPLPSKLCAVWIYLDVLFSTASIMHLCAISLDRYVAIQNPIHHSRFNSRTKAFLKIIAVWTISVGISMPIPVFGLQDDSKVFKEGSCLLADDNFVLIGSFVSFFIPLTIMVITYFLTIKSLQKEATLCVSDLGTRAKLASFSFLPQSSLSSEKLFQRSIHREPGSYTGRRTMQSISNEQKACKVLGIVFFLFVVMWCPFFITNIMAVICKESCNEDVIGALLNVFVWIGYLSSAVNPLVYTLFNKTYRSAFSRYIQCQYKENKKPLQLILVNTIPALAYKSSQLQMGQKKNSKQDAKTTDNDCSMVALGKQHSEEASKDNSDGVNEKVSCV

Row | Compound | Ki [µM]
19 | CNC(C)C(=O)c1ccc(O)c(O)c1 (stereo not shown) [HHMC, 3,4-Dihydroxymethcathinone] | > 12
20 | CNC(C)Cc1ccc(O)c(O)c1 (stereo not shown) [HHMA, 3,4-dihydroxymethamphetamine] | > 12

biological target: T5, 5-HT2C receptor (Homo sapiens, UniProt P28335); test: biochemical; format: binding; conditions: read-out: 5-HT2c Ki; mean±SD, n=3
T5 sequence (P28335 33-458): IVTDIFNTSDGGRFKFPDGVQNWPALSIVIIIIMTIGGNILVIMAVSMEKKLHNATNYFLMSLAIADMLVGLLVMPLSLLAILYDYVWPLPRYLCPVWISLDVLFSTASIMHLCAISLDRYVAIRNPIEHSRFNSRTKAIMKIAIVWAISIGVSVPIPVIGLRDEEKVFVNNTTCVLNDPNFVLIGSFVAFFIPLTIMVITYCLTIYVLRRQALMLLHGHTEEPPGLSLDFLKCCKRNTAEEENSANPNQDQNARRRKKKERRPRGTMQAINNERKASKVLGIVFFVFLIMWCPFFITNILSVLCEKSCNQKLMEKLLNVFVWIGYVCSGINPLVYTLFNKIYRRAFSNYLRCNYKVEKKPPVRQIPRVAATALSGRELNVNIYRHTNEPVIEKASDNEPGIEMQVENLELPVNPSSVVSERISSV

Row | Compound | Ki [µM]
21 | CNC(C)C(=O)c1ccc(O)c(O)c1 (stereo not shown) [HHMC, 3,4-Dihydroxymethcathinone] | > 5.1
22 | CNC(C)Cc1ccc(O)c(O)c1 (stereo not shown) [HHMA, 3,4-dihydroxymethamphetamine] | > 5.1

biological target: rat TAAR1 (Rattus norvegicus, UniProt Q923Y9); test: Radioligand binding, [3H]RO5166017 displacement; conditions: read-out: TAAR1rat Ki; mean±SD, n=3
Sequence (Q923Y9 whole entry): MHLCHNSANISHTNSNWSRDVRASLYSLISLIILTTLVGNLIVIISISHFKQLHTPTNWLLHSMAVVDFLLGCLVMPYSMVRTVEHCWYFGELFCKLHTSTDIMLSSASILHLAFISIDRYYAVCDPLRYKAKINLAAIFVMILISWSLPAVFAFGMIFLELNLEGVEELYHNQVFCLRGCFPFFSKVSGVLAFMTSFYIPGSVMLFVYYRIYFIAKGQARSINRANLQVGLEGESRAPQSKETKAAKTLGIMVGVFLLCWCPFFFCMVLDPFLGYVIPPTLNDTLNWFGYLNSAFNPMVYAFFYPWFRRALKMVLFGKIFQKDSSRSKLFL

Row | Compound | Ki [µM]
23 | CNC(C)C(=O)c1ccc(O)c(O)c1 (stereo not shown) [HHMC, 3,4-Dihydroxymethcathinone] | 2.2 ± 0.1
24 | CNC(C)Cc1ccc(O)c(O)c1 (stereo not shown) [HHMA, 3,4-dihydroxymethamphetamine] | 3 ± 0.3

biological target: mouse TAAR1 (Mus musculus, UniProt Q923Y8); test: Radioligand binding, [3H]RO5166017 displacement; conditions: read-out: TAAR1mouse Ki; mean±SD, n=3
Sequence (Q923Y8 whole entry): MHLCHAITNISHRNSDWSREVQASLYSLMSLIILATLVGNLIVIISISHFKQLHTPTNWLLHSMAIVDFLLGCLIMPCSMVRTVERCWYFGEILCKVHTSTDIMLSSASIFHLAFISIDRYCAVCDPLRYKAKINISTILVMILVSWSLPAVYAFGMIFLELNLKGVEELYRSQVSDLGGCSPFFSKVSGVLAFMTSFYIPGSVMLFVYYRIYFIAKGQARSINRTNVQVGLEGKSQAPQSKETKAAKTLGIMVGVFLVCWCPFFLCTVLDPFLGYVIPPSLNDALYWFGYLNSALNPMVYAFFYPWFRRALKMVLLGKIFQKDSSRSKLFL

Row | Compound | Ki [µM]
25 | CNC(C)C(=O)c1ccc(O)c(O)c1 (stereo not shown) [HHMC, 3,4-Dihydroxymethcathinone] | > 4.4
26 | CNC(C)Cc1ccc(O)c(O)c1 (stereo not shown) [HHMA, 3,4-dihydroxymethamphetamine] | > 4.4

system: not given; test: not given; conditions: rat plasma, subcutaneous injections of methylone; ref Elmore et al., 2017; cited from earlier work

Row | Compound | amount in plasma as % of parent compound methylone
27 | CNC(C)C(=O)c1ccc(O)c(O)c1 (stereo not shown) [HHMC, 3,4-Dihydroxymethcathinone] | 10–13%

same assay, conditions: rat plasma, subcutaneous methylone; ref Elmore et al., 2017; cited from earlier work

Row | Compound | time at which Cmax was reached [min]
28 | CNC(C)C(=O)c1ccc(O)c(O)c1 (stereo not shown) [HHMC, 3,4-Dihydroxymethcathinone] | 60 to 70
